Laboratory results as given in patent US20060018970A1, “Enoximone formulations and their use in the treatment of cardiac hypertrophy and heart failure” (Myogen, Inc., priority 2003, published 2006).
Like-named read-outs stand apart in the source and are kept apart here.

Tests used:
[1] = tested on: patients with the most advanced stage of chronic heart failure dependent on intravenous inotrope therapy; details: cited from earlier work
[2] = clinical; details: human, plasma
[3] = tested on: type-III phosphodiesterase (PDE-III); details: cited from earlier work
[4] = clinical; details: human, in vivo, plasma concentration
[5] = Solubility in the physiological pH range; type: physicochemical; details: data unpublished

In the case of `CSc1ccc(C(=O)c2[nH]c(=O)[nH]c2C)cc1` [enoximone, 1,3-Dihydro-4-methyl-5-[4-(methylthio)benzoyl]-2H-imidazol-2-one], the “time to death or re-initiation of i.v. inotrope therapy” value ([1]; 60-day (p=0.012), 75-day (p=0.016) and 90-day (p=0.041) periods) is given as “benefit in favor of enoximone versus placebo”, the “time to death or re-initiation of i.v. inotrope therapy” value ([1]; 182-day period (p=0.188)) is given as “not” and the “mean total days on i.v. inotrope therapy over the course of the study” value ([1]; placebo 49 days, p=0.049) is given as 28 days. For the same compound, the concentration at 0.5 h ([2]; 25 mg, Patient 4, dose 25 mg) was 23.7 ng/mL, the concentration at 2 h ([2]; 25 mg, Patient 4, dose 25 mg, 2 HR) was 63.6 ng/mL and the concentration at 0 h ([2]; 25 mg, Patient 4, dose 25 mg, PREDOSE) was 18.6 ng/mL. The concentration at 2 h ([2]; 50 mg, Max, 2 hrs, after dosing of enoximone, 5 patients, raw data) was 383 ng/mL, the concentration at 0.5 h ([2]; 50 mg, Patient 1, dose 50 mg) was 118 ng/mL and the concentration at 1 h ([2]; 50 mg, Patient 1, dose 50 mg) was 424 ng/mL. The concentration at 2 h ([2]; 50 mg, Patient 1, dose 50 mg, 2 HR) was 383 ng/mL, the concentration at 4 h ([2]; 50 mg, Patient 1, dose 50 mg, 4 HR) was 209 ng/mL and the concentration at 6 h ([2]; 50 mg, Patient 1, dose 50 mg) was 112 ng/mL. For the same compound, the concentration at 0.5 h ([2]; 50 mg, Patient 2, dose 50 mg) was 52.8 ng/mL, the concentration at 1 h ([2]; 50 mg, Patient 2, dose 50 mg) was 49.8 ng/mL and the concentration at 2 h ([2]; 50 mg, Patient 2, dose 50 mg, 2 HR) was 127 ng/mL. It also gave a concentration at 4 h ([2]; 50 mg, Patient 2, dose 50 mg, 4 HR) of 237 ng/mL, a concentration at 6 h ([2]; 50 mg, Patient 2, dose 50 mg) of 122 ng/mL and a concentration at 0 h ([2]; 50 mg, Patient 2, dose 50 mg, PREDOSE) of 66.7 ng/mL. The concentration at 0.5 h ([2]; 50 mg, Patient 3, dose 50 mg) was 92.4 ng/mL, the concentration at 1 h ([2]; 50 mg, Patient 3, dose 50 mg) was 118 ng/mL and the concentration at 2 h ([2]; 50 mg, Patient 3, dose 50 mg, 2 HR) was 110 ng/mL. For the same compound, the concentration at 4 h ([2]; 50 mg, Patient 3, dose 50 mg, 4 HR) was 78.2 ng/mL, the concentration at 6 h ([2]; 50 mg, Patient 3, dose 50 mg) was 71.7 ng/mL and the concentration at 0 h ([2]; 50 mg, Patient 3, dose 50 mg, PREDOSE) was 34.4 ng/mL. The concentration at 0.5 h ([2]; 50 mg, Patient 5, dose 50 mg) was 137 ng/mL, the concentration at 1 h ([2]; 50 mg, Patient 5, dose 50 mg) was 355 ng/mL and the concentration at 2 h ([2]; 50 mg, Patient 5, dose 50 mg, 2 HR) was 369 ng/mL. For the same compound, the concentration at 4 h ([2]; 50 mg, Patient 5, dose 50 mg, 4 HR) was 268 ng/mL, the concentration at 6 h ([2]; 50 mg, Patient 5, dose 50 mg) was 166 ng/mL and the concentration at 0 h ([2]; 50 mg, Patient 5, dose 50 mg, PREDOSE) was 149 ng/mL. The concentration at 0 h ([2]; Max, 0 hr, after dosing of enoximone, 5 patients, raw data) was 149 ng/mL, the concentration at 4 h ([2]; Max, 4 hrs, after dosing of enoximone, 5 patients, raw data) was 268 ng/mL and the concentration at 8 h ([2]; Max, after dosing of enoximone, 5 patients, raw data) was 166 ng/mL. It also gave a concentration at 0 h ([2]; Min, 0 hr, after dosing of enoximone, 5 patients, raw data) of 7.95 ng/mL, a concentration at 2 h ([2]; Min, 2 hrs, after dosing of enoximone, 5 patients, raw data) of 63.6 ng/mL and a concentration at 4 h ([2]; Min, 4 hrs, after dosing of enoximone, 5 patients, raw data) of 44 ng/mL. The concentration at 8 h ([2]; Min, after dosing of enoximone, 5 patients, raw data) was 20.7 ng/mL, the “inhibition of type-III phosphodiesterase” value [3] was “highly selective inhibition” and the concentration at 0 h ([4]; Max) was 150 ng/mL. The concentration at 2 h ([4]; Max) was 400 ng/mL, the concentration at 4 h ([4]; Max) was 200 ng/mL and the concentration at 8 h ([4]; Max) was 150 ng/mL. It also gave a concentration at 0 h ([4]; Min) of 0 ng/mL, a concentration at 2 h ([4]; Min) of 20 ng/mL and a concentration at 4 h ([4]; Min) of 15 ng/mL. The concentration at 8 h ([4]; Min) was 0 ng/mL, the solubility [5] was “Limited solubility” and the plasma concentration (Patient 1, dose 50 mg, PREDOSE) was 69.7 ng/mL. For the same compound, the plasma concentration (Patient 4, dose 25 mg, HR ALIQUOT 1 (between 0.5 HR and 2 HR)) was 65.8 ng/mL.
